Holding throughout (assay type): cell-based
One experiment deals with AsPC-1 cells. Nature of the experiment: 3D cell proliferation assay (CellTiter Glo-3D) in AsPC-1 cells. Conditions: AsPC-1, human pancreatic cancer cell strain, KRAS G12D mutation, 3D culture, 2% FBS, 5 days, read-out: AsPC-1 AP IC50. An excerpt: MIA PaCa-2 cells were purchased from ATCC, Cat. No. CRL-1420; AsPC-1 cells were purchased from ATCC, Cat. No. CRL-1682; NCI-H441 cells were purchased from ATCC, Cat. No. HTB-174; NCI-H1975 cells were purchased from ATCC, Cat. No. CRL-5908; DMEM medium was purchased from Gibco, Cat. No. 11995-065; RPMI-1640 medium was purchased from Gibco, Cat. No. 11875-093; FBS was purchased from Gibco, Cat. No. 10099-141C; penicillin/streptomycin double-antibiotic solution (PS) was purchased from Gibco, Cat. No. 15140-122; Horse serum was purchased from Gibco, Cat. No. 16050130; trypsin (containing EDTA) was purchased from Gibco, Cat. No. 25200-072; DMSO was purchased from VWRAMRESCO, Cat. No. 0231-500ML; 384-well cell culture plates were purchased from Corning, Cat. No. 3830; white-bottomed, opaque 384-well assay plates were purchased from Corning, Cat. No. 3570; CellTiter Glo-3D kit was purchased from Promega, Cat. No. G9683; cell counter was purchased from CHEMOMETEC, model: NC-200; microplate reader was purchased from PerkinElmer, model: EnVision.
MIA PaCa-2, a human pancreatic cancer cell strain endogenously containing a KRAS^G12Cmutation, was cultured in a complete medium containing DMEM + 10% FBS + 2.5% Horse serum + 1% PS. AsPC-1, a human pancreatic cancer cell strain endogenously containing a KRAS^G12D mutation, was cultured in a complete medium containing RPMI-1640 + 10% FBS + 1% PS. NCI-H441 cells, a human lung cancer cell strain endogenously containing a KRAS^G12V mutation, were cultured in a complete medium containing RPMI-1640 + 10% FBS + 1% PS. NCI-H1975, a KRAS wild-type human lung cancer cell strain whose cell proliferation […], was cultured in a complete medium containing RPMI-1640 + 10% FBS + 1% PS.
The cells were digested with trypsin (containing EDTA), collected in their respective low-serum complete media containing 2% FBS (for MIA Paca-2 cell culture: DMEM + 2% FBS + 0.5% Horse serum + 1% PS), and counted. After the cell density was adjusted as required, MIA PaCa-2 cells (200 cells/well), AsPC-1 cells (800 cells/well), NCI-H441 cells (800 cells/well), or NCI-H1975 cells (400 cells/well) were seeded into a 384-well cell culture plate, with the volume of the medium in each well being 45 µL. The cell culture plate was incubated in an incubator at 37 °C with 5% CO2 overnight. A series of 3.16-fold gradient dilutions of a 1000× compound stock solution were prepared with DMSO, and then diluted 100-fold with the complete medium containing 2% FBS described above to give 10× compound stock solutions. On the day after cell seeding, 5 µL of the 10× compound stock solution was added to each cell culture well. As a result, the final concentration of the compound in the cell culture well became 1×, and the DMSO content in the well was 0.1%. In addition to the compound-treated wells described above, cell-containing DMSO control wells (with 5 µL of the complete medium containing 1% DMSO added to each well) and cell-free medium control wells (containing 50 µL of the complete medium with 2% FBS) were also set. The culture plate was incubated in an incubator at 37 °C with 5% CO2 for another 5 days, and then 30 µL of CellTiter-Glo working solution was added to each well. The mixture was well mixed, incubated for 30 min, left to stand at room temperature for 30 min, and then transferred to a white-bottomed, opaque 384-well assay plate at 40 µL/well. The chemiluminescence values (RLU) were measured using a microplate reader, and the cell proliferation inhibition rate for each well was calculated: IR(%) = (RLUDMSO - RLUcompound)/(RLUDMSO - RLUblank) × 100%, where RLUDMSO is the average RLU signal value from the DMSO control well samples, RLUblank is the average RLU signal value from the medium control well samples, and RLUcompound is the RLU signal value from the compound-treated well samples. […]
On the technique in general: Cellular ATP, detected with luciferase, serves as a proxy for viable cell number.

In experiment [1] the test system is p-ERK. Kind of experiment: Cell p-ERK assay (HTRF, Advance ERK phospho-T202/Y204 kit) in NCI-H441 cells. Conditions: NCI-H441, human non-small cell lung cancer cell strain, KRAS G12V mutation, 3 h compound incubation. The essentials:
(§1)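 Cells with endogenous KRAS mutations, AsPC-1 (G12D) and NCI-H441 (G12V), were plated overnight and then exposed to compound for 3 h at 37 °C (final 0.1% DMSO, 10% FBS medium). ERK T202/Y204 phosphorylation in lysates was read by HTRF, and IC50 was derived from four-parameter curves of inhibition relative to DMSO and blank controls.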
On the technique in general: Time-resolved FRET reads energy transfer from a long-lived donor to a nearby acceptor.

A further experiment has as its system NCI-H441 cells. Kind of experiment: 3D cell proliferation assay (CellTiter Glo-3D) in NCI-H441 cells. Conditions: NCI-H441, human lung cancer cell strain, KRAS G12V mutation, 3D culture, 2% FBS, 5 days, read-out: H441 AP IC50. The essentials:
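KRAS^G12V NCI-H441 and KRAS^G12D AsPC-1 cells (800 cells/well each) grown in RPMI-1640 with 2% FBS and treated the day after seeding with 3.16-fold compound dilutions (0.1% DMSO) for 5 days at 37 °C. Viability by CellTiter-Glo 3D luminescence; inhibition versus DMSO and cell-free controls, IC50 from four-parameter fit.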

In experiment [2] the test system is p-ERK. Nature of the experiment: Cell p-ERK assay (HTRF, Advance ERK phospho-T202/Y204 kit) in AsPC-1 cells. Conditions: AsPC-1, human pancreatic cancer cell strain, KRAS G12D mutation, 3 h compound incubation. The essentials: as §1

Read-outs that look alike come from different tables or passages of the source.

Take `CCn1c(F)c2c(c1-c1cc(N3CCN(C)CC3)cnc1C(C)OC)CC(C)(C)COC(=O)C1CCCN(N1)C(=O)C(NC(=O)C1C(C)C1C)Cc1nc(cs1)C=C2` [Compound Z75, (1r,2S,3R)-N-((4^2Z,8^3R,2E,6R)-1^1-ethyl-1^2-fluoro-1^5-(2-((S)-1-methoxyethyl)-5-(4-methylpiperazin-1-yl)pyridin-3-yl)-12,12-dimethyl-7,9-dioxo-8^1,8^2,8^3,8^4,8^5,8^6-hexahydro-1^1H-10-oxa-4(4,2)-thiazola-8(1,3)-pyridazina-1(3,4)-pyrrolacyclotridecaphan-2-en-6-yl)-2,3-dimethylcyclopropane-1-carboxamide]: the IC50 (as a rule, the concentration needed to halve the response being measured) in the experiment on AsPC-1 cells turned out to be 2.17 nM; with p-ERK [1], 1.3 nM; with NCI-H441 cells, 1.85 nM; in the experiment on p-ERK [2] it was 1.46 nM.
`CCn1cc2c(c1-c1cc(N3CCN(C)CC3)cnc1[C@H](C)OC)CC(C)(C)COC(=O)[C@@H]1CCCN(N1)C(=O)[C@@H](NC(=O)[C@H]1[C@H](C)[C@@H]1C)Cc1nc(cs1)/C=C/2` (atropisomer, axis not shown) [Compound Z8A, (1r,2S,3R)-N-((4^2Z,8^3R,2E,6R)-1^1-ethyl-1^5-(2-((S)-1-methoxyethyl)-5-(4-methylpiperazin-1-yl)pyridin-3-yl)-12,12-dimethyl-7,9-dioxo-8^1,8^2,8^3,8^4,8^5,8^6-hexahydro-1^1H-10-oxa-4(4,2)-thiazola-8(1,3)-pyridazina-1(3,4)-pyrrolacyclotridecaphan-2-en-6-yl)-2,3-dimethylcyclopropane-1-carboxamide]: the IC50 amounted to 3.71 nM in the experiment on AsPC-1 cells (ASPC1, 120 h); 8.08 nM in the experiment on p-ERK [1] (Homo sapiens, NCI-H441, 3 h); 3.98 nM in the experiment on NCI-H441 cells (Homo sapiens, NCI-H441, 120 h); 8.19 nM with p-ERK [2] (ASPC1).
In the case of `CCn1cc2c(c1-c1cc(C#CCN3CCC(C#N)CC3)cnc1[C@H](C)OC)CC(C)(C)COC(=O)[C@@H]1CCCN(N1)C(=O)[C@@H](NC(=O)[C@H]1[C@@H]3COC[C@@H]31)Cc1nc(cs1)/C=C/2` (atropisomer, axis not shown; (Ra)) [Compound Z50, (1R,5S,6r)-N-((4^2Z,8^3S,2E,6S)-(Ra)-1^5-(5-(3-(4-cyanopiperidin-1-yl)prop-1-yn-1-yl)-2-((S)-1-methoxyethyl)pyridin-3-yl)-1^1-ethyl-12,12-dimethyl-7,9-dioxo-8^1,8^2,8^3,8^4,8^5,8^6-hexahydro-1^1H-10-oxa-4(4,2)-thiazola-8(1,3)-pyridazina-1(3,4)-pyrrolacyclotridecaphan-2-en-6-yl)-3-oxabicyclo[3.1.0]hexane-6-carboxamide], the IC50 in the experiment with AsPC-1 cells (ASPC1, 120 h) worked out at 0.19 nM; in the experiment on p-ERK [1] (Homo sapiens, NCI-H441, 3 h), 0.29 nM; in the experiment with NCI-H441 cells (Homo sapiens, NCI-H441, 120 h), 0.14 nM; in the experiment on p-ERK [2] (ASPC1), 0.11 nM.
For the compound `CCn1c(F)c2c(c1-c1cc(C#CCN3CCOCC3)cnc1[C@H](C)OC)CC(C)(C)COC(=O)[C@@H]1CCCN(N1)C(=O)[C@@H](NC(=O)[C@H]1[C@H](C)[C@@H]1C)Cc1nc(cs1)/C=C/2` (atropisomer, axis not shown; (Ra)) [Compound Z229, (1r, 2R, 3S)-N-((4^2Z, 8^3S, 2E,6S)-1^1-ethyl-1^2-fluoro-(Ra)-1^5-(2-((S)-1-methoxyethyl)-5-(3-morpholinoprop-yn-1-yl)pyridin-3-yl)-12,12-dimethyl-7,9-dioxo-8^1,8^2,8^3,8^4,8^5,8^6-hexahydro-1^1H-10-oxa-4(4,2)-thiazola-8(1,3)-pyridazina-1(3,4)-pyrrolacyclotridecaphan-2-en-6-yl)-2,3-dimethylcyclopropane-1-carboxamide], the IC50 in the experiment with AsPC-1 cells (ASPC1, 120 h) was determined as 0.56 nM; with p-ERK [1] (Homo sapiens, NCI-H441, 3 h) it was 0.6 nM; with NCI-H441 cells (Homo sapiens, NCI-H441, 120 h) it was 0.56 nM; in the experiment on p-ERK [2] (ASPC1), 1.04 nM.
On to `CO[C@@H](C)c1ncc(C#CCN2CCS(=O)(=O)CC2)cc1-c1c2c(cn1C(C)C)/C=C/c1csc(n1)C[C@H](NC(=O)[C@H]1[C@H](C)[C@@H]1C)C(=O)N1CCC[C@H](N1)C(=O)OCC(C)(C)C2` (single isomer, unassigned) [Compound Z10], for which the IC50 with AsPC-1 cells (ASPC1, 120 h) was determined as 0.56 nM; in the experiment with p-ERK [1] (Homo sapiens, NCI-H441, 3 h), 0.83 nM; with NCI-H441 cells (Homo sapiens, NCI-H441, 120 h), 0.42 nM; with p-ERK [2] (ASPC1) it was 1.2 nM.
The like results for `CCn1cc2c(c1-c1cc(C#CCN3CCS(=O)(=O)CC3)cnc1[C@H](C)OC)CC(C)(C)COC(=O)[C@@H]1CCCN(N1)C(=O)[C@@H](NC(=O)[C@H]1[C@H](C)[C@@H]1C)Cc1nc(cs1)/C=C/2` (atropisomer, axis not shown; (Ra)) [Compound Z118, (1r,2R,3S)-N-((4^2Z,8^3S,2E,6S)-(Ra)-1^5-(5-(3-(1,1-dioxidothiomorpholino)prop-1-yn-1-yl)-2-((S)-1-methoxyethyl)pyridin-3-yl)-1^1-ethyl-12,12-dimethyl-7,9-dioxo-8^1,8^2,8^3,8^4,8^5,8^6-hexahydro-1^1H-10-oxa-4(4,2)-thiazola-8(1,3)-pyridazina-1(3,4)-pyrrolacyclotridecaphan-2-en-6-yl)-2,3-dimethylcyclopropane-1-carboxamide] were, in that order, 0.24 nM, 0.47 nM, 0.28 nM and 0.2 nM.
The like results for `CCn1cc2c(c1-c1cc(C#CCN3CCS(=O)(=O)CC3)cnc1[C@H](C)OC)CC(C)(C)COC(=O)[C@@H]1CCCN(N1)C(=O)[C@@H](NC(=O)[C@H]1[C@@H]3COC[C@@H]31)Cc1nc(cs1)/C=C/2` (atropisomer, axis not shown; (Ra)) [Compound Z130, (1R,5S,6r)-N-((4^2Z,8^3S,2E,6S)-(Ra)-1^5-(5-(3-(1,1-dioxidothiomorpholino)prop-1-yn-1-yl)-2-((S)-1-methoxyethyl)pyridin-3-yl)-1^1-ethyl-12,12-dimethyl-7,9-dioxo-8^1,8^2,8^3,8^4,8^5,8^6-hexahydro-1^1H -10-oxa-4(4,2)-thiazola-8(1,3)-pyridazina-1(3,4)-pyrrolacyclotridecaphan-2-en-6-yl)-3-oxabicyclo[3.1.0]hexane-6-carboxamide] were, in that order, 0.36 nM, 0.54 nM, 0.41 nM and 0.94 nM.

The values above are taken from patent EP4772514A1, “MACROCYCLIC COMPOUNDS, PREPARATION METHOD THEREFOR, AND USE THEREOF” (Genfleet Therapeutics (Shanghai) Inc., priority 2023, dated 2025).
